Source: patent EP0428107A2, “Use of quinolyl-and isoquinolyloxanole-2-ones for the production of a medicament for the treatment of multi-drug resistant tumors” (MERRELL DOW PHARMACEUTICALS INC., priority 1989, dated 1991)

Test system: CHO^R cells
Assay: Reversal of multidrug resistance: cell growth of vinblastine-resistant CHO^R cells, Coulter counter cell count
[1] = 72 h, read-out: % Inhibition of Cell Growth Compound Only

SMILES	inhibition at 0.1 µg/mL [1]	inhibition at 1 µg/mL [1]	inhibition at 5 µg/mL [1]	inhibition at 10 µg/mL [1]	% Inhibition of Cell Growth Compound + VLB (compound 0.1 µg/ml + vinblastine 0.2 µg/ml, 72 hr)	% Inhibition of Cell Growth Compound + VLB (compound 1 µg/ml + vinblastine 0.2 µg/ml, 72 hr)	% Inhibition of Cell Growth Compound + VLB (compound 5 µg/ml + vinblastine 0.2 µg/ml, 72 hr)	% Inhibition of Cell Growth Compound + VLB (compound 10 µg/ml + vinblastine 0.2 µg/ml, 72 hr)	effect on cell growth (VLB alone at 0.2 µg/ml, 72 hr)
CCCc1[nH]c(=O)oc1-c1ccnc2ccccc12 [4-Propyl-5-(4-Quinolinyl)-1-(3H)-Oxazolone]	0%	0%	0%	14%	4%	43%	93%	93%	–
CC[C@]1(O)C[C@@H]2CN(CCc3c([nH]c4ccccc34)[C@@](C(=O)OC)(c3cc4c(cc3OC)N(C)[C@H]3[C@@](O)(C(=O)OC)[C@H](OC(C)=O)[C@]5(CC)C=CCN6CC[C@]43[C@@H]65)C2)C1 [VLB, vinblastine, reference compound]	–	–	–	–	–	–	–	–	did not have any effect on cell growth
